# Experimental data: US20100298329A1, “TOLPERISONE AND TOLPERISONE-LIKE DRUGS FOR THE TREATMENT OF K-RAS ASSOCIATED CANCERS” (Massachusette Institute of Technology, priority 2007, published 2010)
# Columns and labels:
# [1] = system: subcutaneous K-ras G12D-expressing mouse fibroblast tumors; assay: Xenograft tumor size in mice; type: in vivo; settings: 100-200 mg/kg once a day, 7 consecutive days, vs matched DMSO controls
# Method: The effectiveness of one or more compounds of the invention (e.g., lanperisone) was evaluated in vivo using xenografts. The effect on xenograft tumor size was evaluated in mice by administering a compound of the invention at a dose of 100-200 mg/kg once a day (e.g., via oral administration in water). The compounds were also administered intraperitoneally. Mice harboring established, subcutaneous tumors measuring at least 1 cm were treated with lanperisone for 7 consecutive days. […] These findings confirm the in vivo efficacy of lanperisone in targeting K-ras mutant tumors.
# [2] = system: K-rasG12D-expressing cells; assay: Additional biochemical experiments on mechanism of cell death (reactive oxygen species); type: cell-based; settings: mouse and human cells, fibroblast and epithelial cell lines
# Method: (§1) To study the selectivity of lanperisone for K-ras mutant cells, gene expression profiling experiments were carried out using wild-type and K-rasG12D MEFs treated with lanperisone or control DMSO. The gene expression signatures associated with lanperisone treatment were compared with those observed upon 1) manipulation of any of a number of defined biological pathways (i.e., Gene Set Enrichment Analysis or GSEA) and 2) treatment with small molecules with known targets including FDA-approved drugs (ie the Connectivity Map or CMAP). […] This mechanism of cell death occurs in both mouse and human cells, as well as in both fibroblast and epithelial cell lines.
# [3] = system: wild-type and K-rasG12D MEFs; assay: Gene expression profiling (GSEA, Connectivity Map); type: cell-based, mouse
# Method: as §1
# [4] = system: K-Ras mutant cells (cells with Kras G12D mutation); assay: FACS analysis of cell death and proliferation (Tunnel/PI staining, DNA content, BrdU staining); type: cell-based
# Method: The effects of lanperisone on cell proliferation and cell death were evaluated based on a FACS analysis. Tunnel staining (for dying cells) and PI staining (excluded by living cells) were used to evaluate cell death in lanperisone and DMSO treated wild-type and K-Ras mutant cells (cells with a Kras G12D mutation).
# [5] = system: mouse embryonic fibroblasts (MEFs) expressing oncogenic K-Ras; assay: Cell Titer Glo cell viability screen, mutant K-Ras vs wild-type MEFs; type: cell-based; settings: cell viability by intracellular ATP
# Text: These MEFs have been extensively characterized at the molecular and cellular level. […] The inclusion of wild-type cells allowed for the elimination of general cytotoxic compounds and for the targeting of molecular pathways activated by oncogenic K-Ras.
# (§2) The differential activity of tolperisone confirmed using other assays, such as BrdU cytoblot assay, which measures proliferation based upon incorporation of BrdU.
# [6] = system: K-Ras mutant cells; assay: BrdU cytoblot assay (proliferation by BrdU incorporation); type: cell-based, mouse; settings: proliferation based upon incorporation of BrdU
# Text: as §2
structure (smiles),measurement,setting,value
C[C@H](CN1CCCC1)C(=O)c1ccc(C(F)(F)F)cc1 [lanperisone],tumor size at the end of the treatment period,[1],significantly smaller tumors than matched controls
same,mechanism of selective cell killing,[2],selectively kills K-rasG12D-expressing cells by inducing reactive oxygen species
same,Connectivity Map connectivities with other classes of small molecules,"[3]; calcium modulators, HDAC inhibitors, HIF activators",Numerous connectivities
same,GSEA pathway enrichment,[3]; lanperisone-treated MEFs vs DMSO,marked enrichment of hypoxia as well as oxidative stress pathways
same,cell cycle phase specificity of cell death (cellular DNA content),"[4]; FACS, FIG. 3B",not specific to any particular phase of the cell cycle
same,cellular proliferation (BrdU staining),"[4]; FACS, FIG. 3C",no specific defect in cellular proliferation
same,cell death (Tunnel staining / PI staining),"[4]; at 6 hours, 10 μM and 20 μM, Kras G12D cells relative to wild-type cells",preferentially caused cell death in K-Ras mutant cells
Cc1ccc(C(=O)C(C)CN2CCCCC2)cc1 (stereo not drawn) [tolperisone],concentration at which differential activity was shown (as low as),[5],5 microns
same,differential activity in BrdU cytoblot assay,[6],confirmed
